Tested on: skeletal sarcomere (skeletal myosin with actin, tropomyosin, and troponin complex)
Test: Screen of ATP hydrolysis rate of myosin with calcium-regulated actin filament (actin/tropomyosin/troponin), PK/LDH/NADH coupled enzyme system
Assay type: biochemical
Settings: screen conducted at pCa=6.5; unit not given
Procedure: For example, test compounds can be assayed in a highly parallel fashion by using multiwell plates by placing the compounds either individually in wells or testing them in mixtures. Assay components including the target protein complex, coupling enzymes and substrates, and ATP can then be added to the wells and the absorbance or fluorescence of each well of the plate can be measured with a plate reader.
In some embodiments, the method uses a 384 well plate format and a 25 μL reaction volume. A pyruvate kinase/lactate dehydrogenase coupled enzyme system (Huang T G and Hackney D D. (1994) J Biol Chem 269(23):16493-501) can be used to measure the rate of ATP hydrolysis in each Well. As will be appreciated by those in the art, the assay components are added in buffers and reagents. The incubation periods can be optimized to give adequate detection signals over the background. The assay can be done in real time giving the kinetics of ATP hydrolysis which increases the signal to noise ratio of the assay.
Actin was purified by first preparing an ether powder of cardiac muscle (Zot H G and Potter J D. (1981) Preparative Biochemistry 11:381-395) as described below. Subsequently, actin was cycled between the filamentous and soluble state through rounds of centrifugation and dialysis (Spudich J A and Watt S. (1971) J. Biol. Chem. 246:4866-4871). It was stored in the filamentous state at 4° C.
Tropomyosin was extracted from the ether powder and separated from the other proteins based on pH dependent precipitations followed by successive ammonium sulfate cuts at 53% and 65% (Smillie L B. (1981) Methods Enzymol 85 Pt B:234-41). The troponins were isolated as an intact complex of TnC, TnT, and TnI. Ether powder is extracted in a high salt buffer. Successive ammonium sulfate cuts of 30% and 45% were done; the precipitate was solubilized by dialysis into a low salt buffer and then further purified on a DEAE Toyopearl column with a 25-350 mM KCl gradient.
Just prior to screening, the actin, tropomyosin, and troponin complex are mixed together in the desired ratio (e.g., 7:1:1) to achieve maximal calcium regulation of the actin filament. The screen is conducted at a pCa=6.5. This calcium concentration is in the physiological range during muscle contraction.
To measure the generation of ADP during the reaction, a pyruvate kinase/lactate dehydrogenase/NADH coupled enzyme system (PK/LDH) is added to the actin. The myosin is kept separately. The plates are read in real time so that kinetic curves are obtained. These compounds are in DMSO and were already spotted onto the bottoms of 384 well plates at 10 to 40 μg/ml final concentration.
• 1. Obtain ˜1000 g skeletal muscle, such as rabbit skeletal muscle. • 2. Grind twice; extract with 2 L solution A for 15 min while stirring; add 4 L cold H2O, filter through gauze; dilute with cold H2O to ionic strength of 0.04, (about 10-fold); let settle for 3 h; collect precipitate at 7,000 rpm in GSA rotor for 15 min. • 3. Disperse pellet in 220 ml solution B; dialyze overnight against 6 L solution C; slowly add ˜400 ml equal volume cold distilled H2O; stir for 30 min; centrifuge at 10,000 rpm for 10 min in GSA rotor. • 4. Centrifuge supernatant at 19,000 rpm for 1 h. • 5. Dilute supernatant to ionic strength of 0.04 (˜8-fold); let myosin settle overnight; collect about 5-6 L fluffy myosin precipitate by centrifuging at 10,000 rpm for 10 min in GSA rotor. • 6. Resuspend pellet in minimal volume of solution G; dialyze overnight against 2 L solution D; centrifuge at 19,000 rpm for 2 h, in cellulose nitrate tubes; puncture tubes and separate myosin from fat and insoluble pellet. • 7. Dilute supernatant to 5-10 mg/ml and dialyze against solution E extensively, load onto DEAE-sephadex column. • 8. […]

Compound	AC1.4 Median
3-(ethylpropyl)-5-ethynylimidazo[5,4-b]pyridin-2-ol	2.366
3-(ethylpropyl)-5-methylimidazo[5,4-b]pyridin-2-ol	43.299
3-(ethylpropyl)-5-vinylimidazo[5,4-b]pyridin-2-ol	3.836
5-(dimethylamino)-3-(ethylpropyl)imidazo[5,4-b]pyridin-2-ol	2.611
C/C=C\c1ccc2nc(O)n(C(CC)CC)c2n1 [5-((1Z)prop-1-enyl)-3-(ethylpropyl)imidazo[5,4-b]pyridin-2-ol]	0.840
CCC(CC)n1c(O)nc2ccc(Br)nc21 [5-bromo-3-(ethylpropyl)imidazo[5,4-b]pyridin-2-ol]	8.050
CCC(CC)n1c(O)nc2ccc(Cl)nc21 [5-chloro-3-(ethylpropyl)imidazo[5,4-b]pyridin-2-ol]	21.134
